Among the data in patent US8575183B2, “Heterocyclic compounds and their uses” (priority 2010, dated 2013) are Ki values, retold here.

Values joined by “and” are separate entries in the source; they are usually repeats but may differ in a detail not shown here. Equal entries are not always repeated.

One may read the Ki as the dissociation constant of the complex between target and ligand, obtained from inhibition or displacement.

This assay has as its target T1, PI3k δ (Homo sapiens, UniProt O00329).
T1 construct: Full length p110 subunits of PI3k α, β and δ; polyHis (N); made in house; host or cells: Sf9 insect cells (baculovirus)
Description: biochemical. As to conditions: read-out: PI3k δ Ki. The format is biochemical. How it is done: Full length p110 subunits of PI3k α, β and δ, N-terminally labeled with polyHis tag, were coexpressed with p85 with Baculo virus expression vectors in sf9 insect cells. P110/p85 heterodimers were purified by sequential Ni-NTA, Q-HP, Superdex-100 chromatography. Purified α, β and δ isozymes were stored at −20° C. in 20 mM Tris, pH 8, 0.2M NaCl, 50% glycerol, 5 mM DTT, 2 mM Na cholate. […] The γ isozyme was purified by sequential Ni-NTA, Superdex-200, Q-HP chromatography. The γ isozyme was stored frozen at −80° C. in NaH2PO4, pH 8, 0.2M NaCl, 1% ethylene glycol, 2 mM β-mercaptoethanol.
Phospatidyl inositol phosphoacceptor, Ptdlns(4,5)P2 P4508, was from Echelon Biosciences. […] Test compounds were dissolved in dimethyl sulfoxide and diluted with three-fold serial dilutions. The compound in DMSO (1 μL) was added per test well, and the inhibition relative to reactions containing no compound, with and without enzyme was determined. After assay incubation at rt, the reaction was stopped and residual ATP determined by addition of an equal volume of a commercial ATP bioluminescence kit (Perkin Elmer EasyLite) according to the manufacturer's instructions, and detected using a AnalystGT luminometer.

T1 sequence (O00329 whole entry): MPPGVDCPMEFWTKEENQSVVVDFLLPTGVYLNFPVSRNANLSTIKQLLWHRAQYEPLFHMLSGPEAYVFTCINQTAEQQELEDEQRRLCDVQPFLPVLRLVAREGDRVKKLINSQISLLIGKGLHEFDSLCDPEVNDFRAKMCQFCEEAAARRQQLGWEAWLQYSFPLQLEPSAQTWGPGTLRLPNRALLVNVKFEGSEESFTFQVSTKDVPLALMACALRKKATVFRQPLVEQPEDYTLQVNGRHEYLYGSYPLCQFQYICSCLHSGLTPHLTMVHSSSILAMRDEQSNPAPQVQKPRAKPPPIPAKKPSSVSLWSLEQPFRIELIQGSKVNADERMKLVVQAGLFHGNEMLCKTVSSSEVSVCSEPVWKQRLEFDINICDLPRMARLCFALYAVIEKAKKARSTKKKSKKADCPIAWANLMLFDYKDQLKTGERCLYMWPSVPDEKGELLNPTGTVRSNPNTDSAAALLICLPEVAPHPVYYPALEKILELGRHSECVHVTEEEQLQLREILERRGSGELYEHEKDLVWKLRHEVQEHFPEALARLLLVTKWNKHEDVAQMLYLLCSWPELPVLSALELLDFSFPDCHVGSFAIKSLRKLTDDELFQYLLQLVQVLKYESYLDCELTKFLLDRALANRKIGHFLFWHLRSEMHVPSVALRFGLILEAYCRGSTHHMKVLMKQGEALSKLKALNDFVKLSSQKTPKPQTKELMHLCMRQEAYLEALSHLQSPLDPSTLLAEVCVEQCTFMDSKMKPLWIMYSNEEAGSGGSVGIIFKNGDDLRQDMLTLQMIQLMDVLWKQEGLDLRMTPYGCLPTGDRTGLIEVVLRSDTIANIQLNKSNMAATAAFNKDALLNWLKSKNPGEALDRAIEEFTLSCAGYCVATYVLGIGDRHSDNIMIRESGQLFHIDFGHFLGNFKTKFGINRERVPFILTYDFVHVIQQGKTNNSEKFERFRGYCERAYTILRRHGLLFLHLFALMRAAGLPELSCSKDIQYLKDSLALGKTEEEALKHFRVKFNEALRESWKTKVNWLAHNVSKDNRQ
T1 sequence (P27986 whole entry partner): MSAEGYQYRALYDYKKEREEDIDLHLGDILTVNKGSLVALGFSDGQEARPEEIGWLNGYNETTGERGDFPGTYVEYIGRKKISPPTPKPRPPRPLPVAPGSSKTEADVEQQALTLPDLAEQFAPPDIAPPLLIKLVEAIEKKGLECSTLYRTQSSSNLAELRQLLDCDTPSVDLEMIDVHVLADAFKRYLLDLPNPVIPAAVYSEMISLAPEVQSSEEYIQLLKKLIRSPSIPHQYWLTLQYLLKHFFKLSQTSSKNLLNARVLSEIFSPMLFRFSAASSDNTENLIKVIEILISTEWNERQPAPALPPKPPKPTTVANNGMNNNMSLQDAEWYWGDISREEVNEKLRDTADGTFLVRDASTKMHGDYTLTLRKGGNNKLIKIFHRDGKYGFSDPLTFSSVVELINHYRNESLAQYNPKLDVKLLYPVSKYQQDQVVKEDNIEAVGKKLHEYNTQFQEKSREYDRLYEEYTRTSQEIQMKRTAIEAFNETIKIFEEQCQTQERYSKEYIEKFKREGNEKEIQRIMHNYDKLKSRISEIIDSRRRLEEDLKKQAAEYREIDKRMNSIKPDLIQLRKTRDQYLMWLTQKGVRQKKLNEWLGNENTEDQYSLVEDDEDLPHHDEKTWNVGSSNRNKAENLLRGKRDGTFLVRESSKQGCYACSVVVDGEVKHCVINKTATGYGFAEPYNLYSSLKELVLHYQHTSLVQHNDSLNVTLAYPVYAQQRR

Consider `C[C@H](Nc1ncnc(N)c1C#N)c1nc2ncccc2n1-c1ccccn1` [4-amino-6-(((1S)-1-(1-(2-pyridinyl)-1H-imidazo[4,5-b]pyridin-2-yl)ethyl)amino)-5-pyrimidinecarbonitrile], for which the Ki was 1620 nM.

Turning to `C[C@H](Nc1ncnc(N)c1C#N)c1nc2cccc(S(C)(=O)=O)c2n1Cc1cc(F)cc(F)c1` [4-amino-6-(((1S)-1-(1-(3,5-difluorobenzyl)-7-(methylsulfonyl)-1H-benzimidazol-2-yl)ethyl)amino)-5-pyrimidinecarbonitrile], the Ki turned out to be 295 nM.

As for `C[C@H](Nc1ncnc(N)c1C#N)c1nc2c(F)cc(F)cc2n1-c1cc(F)cc(F)c1` [4-amino-6-(((1S)-1-(1-(3,5-difluorophenyl)-4,6-difluoro-1H-benzimidazol-2-yl)ethyl)amino)-5-pyrimidinecarbonitrile], the inhibitory constant (Ki) turned out to be 2.6 nM.

Take `C[C@H](Nc1ncnc(N)c1C#N)c1nc2c(F)cccc2n1-c1cc(F)cc(F)c1` [4-amino-6-(((1S)-1-(1-(3,5-difluorophenyl)-4-fluoro-1H-benzimidazol-2-yl)ethyl)amino)-5-pyrimidinecarbonitrile]: the Ki is 6.4 nM and 2.1 nM.

For `C[C@H](Nc1ncnc(N)c1C#N)c1nc2cccc(F)c2n1-c1cc(F)cc(F)c1` [4-amino-6-(((1S)-1-(1-(3,5-difluorophenyl)-7-fluoro-1H-benzimidazol-2-yl)ethyl)amino)-5-pyrimidinecarbonitrile], the Ki amounted to 3.7 nM.

For the compound `C[C@H](Nc1ncnc(N)c1C#N)c1nc2ccc(F)cc2n1-c1cccc(C#N)c1` [4-amino-6-(((1S)-1-(1-(3-cyanophenyl)-6-fluoro-1H-benzimidazol-2-yl)ethyl)amino)-5-pyrimidinecarbonitrile], the Ki amounted to 18.8 nM.

With `C[C@H](Nc1ncnc(N)c1C#N)c1nc2c(S(C)(=O)=O)cccc2n1Cc1ccc(F)cc1` [4-amino-6-(((1S)-1-(1-(4-fluorobenzyl)-4-(methylsulfonyl)-1H-benzimidazol-2-yl)ethyl)amino)-5-pyrimidinecarbonitrile], the Ki was found to be 2410 nM.

Consider `C[C@H](Nc1ncnc(N)c1C#N)c1nc2cccc(S(C)(=O)=O)c2n1Cc1ccc(F)cc1` [4-amino-6-(((1S)-1-(1-(4-fluorobenzyl)-7-(methylsulfonyl)-1H-benzimidazol-2-yl)ethyl)amino)-5-pyrimidinecarbonitrile], for which the Ki came to 26.8 nM.

Turning to `CC[C@H](Nc1ncnc(N)c1C#N)c1nc2cccc(S(C)(=O)=O)c2n1Cc1ccc(F)cc1` [4-amino-6-(((1S)-1-(1-(4-fluorobenzyl)-7-(methylsulfonyl)-1H-benzimidazol-2-yl)propyl)amino)-5-pyrimidinecarbonitrile], the Ki was found to be 27.4 nM.

In the case of `CC[C@H](Nc1ncnc(N)c1C#N)c1nc2cccc(C(F)(F)F)c2n1Cc1ccc(F)cc1` [4-amino-6-(((1S)-1-(1-(4-fluorobenzyl)-7-(trifluoromethyl)-1H-benzimidazol-2-yl)propyl)amino)-5-pyrimidinecarbonitrile], the Ki worked out at 464 nM.

Take `C[C@H](Nc1ncnc(N)c1C#N)c1nc2cc(F)ccc2n1CC1CC1` [4-amino-6-(((1S)-1-(1-(cyclopropylmethyl)-5-fluoro-1H-benzimidazol-2-yl)ethyl)amino)-5-pyrimidinecarbonitrile]: the Ki is 6 nM and 25.8 nM.

As for `C[C@H](Nc1ncnc(N)c1C#N)c1nc2ccc(F)cc2n1CC1CC1` [4-amino-6-(((1S)-1-(1-(cyclopropylmethyl)-6-fluoro-1H-benzimidazol-2-yl)ethyl)amino)-5-pyrimidinecarbonitrile], the Ki came out at 3.1 nM.

With `C[C@H](Nc1ncnc(N)c1C#N)c1nc2cccc(S(C)(=O)=O)c2n1CC1CC1` [4-amino-6-(((1S)-1-(1-(cyclopropylmethyl)-7-(methylsulfonyl)-1H-benzimidazol-2-yl)ethyl)amino)-5-pyrimidinecarbonitrile], the Ki is 2.2 nM.

Take `CC[C@H](Nc1ncnc(N)c1C#N)c1nc2cccc(S(C)(=O)=O)c2n1CC1CC1` [4-amino-6-(((1S)-1-(1-(cyclopropylmethyl)-7-(methylsulfonyl)-1H-benzimidazol-2-yl)propyl)amino)-5-pyrimidinecarbonitrile]: the Ki was 2.19 nM.

`CC[C@H](Nc1ncnc(N)c1C#N)c1nc2cccc(C(F)(F)F)c2n1CC1CC1` [4-amino-6-(((1S)-1-(1-(cyclopropylmethyl)-7-(trifluoromethyl)-1H-benzimidazol-2-yl)propyl)amino)-5-pyrimidinecarbonitrile]: the Ki is 53.1 nM.

On to `C[C@H](Nc1ncnc(N)c1C#N)c1nc2c(S(C)(=O)=O)cccc2n1C1CCCC1` [4-amino-6-(((1S)-1-(1-cyclopentyl-4-(methylsulfonyl)-1H-benzimidazol-2-yl)ethyl)amino)-5-pyrimidinecarbonitrile], for which the Ki amounted to 1440 nM.

Take `C[C@H](Nc1ncnc(N)c1C#N)c1nc2cccc(S(C)(=O)=O)c2n1C1CC1` [4-amino-6-(((1S)-1-(1-cyclopropyl-7-(methylsulfonyl)-1H-benzimidazol-2-yl)ethyl)amino)-5-pyrimidinecarbonitrile]: the Ki was 2.83 nM.

For `C[C@H](Nc1ncnc(N)c1C#N)c1nc2cccc(F)c2n1C1CC1` [4-amino-6-(((1S)-1-(1-cyclopropyl-7-fluoro-1H-benzimidazol-2-yl)ethyl)amino)-5-pyrimidinecarbonitrile], the Ki worked out at 12.2 nM.

Regarding `C[C@H](Nc1ncnc(N)c1C#N)c1nc2cnccn2c1-c1ccccn1` [4-amino-6-(((1S)-1-(3-(2-pyridinyl)imidazo[1,2-a]pyrazin-2-yl)ethyl)amino)-5-pyrimidinecarbonitrile], the Ki is 2160 nM.

For `C[C@H](Nc1ncnc(N)c1C#N)c1nc2ncccn2c1-c1ccccn1` [4-amino-6-(((1S)-1-(3-(2-pyridinyl)imidazo[1,2-a]pyrimidin-2-yl)ethyl)amino)-5-pyrimidinecarbonitrile], the Ki was 1580 nM.

For the compound `C[C@H](Nc1ncnc(N)c1C#N)c1nc2cccnn2c1-c1ccccn1` [4-amino-6-(((1S)-1-(3-(2-pyridinyl)imidazo[1,2-b]pyridazin-2-yl)ethyl)amino)-5-pyrimidinecarbonitrile], the Ki was 2010 nM.

Regarding `C[C@H](Nc1ncnc(N)c1C#N)c1nc2cccnc2n1-c1cc(F)cc(F)c1` [4-amino-6-(((1S)-1-(3-(3,5-difluorophenyl)-3H-imidazo[4,5-b]pyridin-2-yl)ethyl)amino)-5-pyrimidinecarbonitrile], the Ki is 138 nM.

`C[C@H](Nc1ncnc(N)c1C#N)c1nc2ccc(F)cn2c1-c1cc(F)cc(Cl)c1` [4-amino-6-(((1S)-1-(3-(3-chloro-5-fluorophenyl)-6-fluoroimidazo[1,2-a]pyridin-2-yl)ethyl)amino)-5-pyrimidinecarbonitrile]: the Ki was determined as 8.8 nM.

In the case of `C[C@H](Nc1ncnc(N)c1C#N)c1nc2ccc(F)cn2c1-c1ccc(Cl)cc1` [4-amino-6-(((1S)-1-(3-(4-chlorophenyl)-6-fluoroimidazo[1,2-a]pyridin-2-yl)ethyl)amino)-5-pyrimidinecarbonitrile], the Ki worked out at 25.1 nM.

`C[C@H](Nc1ncnc(N)c1C#N)c1nc2ccccn2c1-c1ccc(Cl)cc1` [4-amino-6-(((1S)-1-(3-(4-chlorophenyl)imidazo[1,2-a]pyridin-2-yl)ethyl)amino)-5-pyrimidinecarbonitrile]: the Ki is 74 nM.
